According to article PMC12096674 (Journal of Enzyme Inhibition and Medicinal Chemistry, 2025):
Where two headings read alike, the source gives them in different places.

Key:
M^pro of four alpha-CoVs = conditions: read-out: IC50 values against all four alpha-CoVs
[1] = test system: M^pro of ten high-risk CoVs
HCoV-OC43 M^pro = conditions: read-out: IC50 HCoV-OC43, cited from earlier work
HCoV-HKU1 M^pro = conditions: read-out: IC50 HCoV-HKU1; cited from earlier work
HCoV-NL63 M^pro = conditions: read-out: IC50 HCoV-NL63, cited from earlier work

## Cn1cnc(Cn2c(=O)[nH]/c(=N\c3cc4cn(C)nc4cc3Cl)n(Cc3cc(Cl)c(F)cc3Oc3ncc(C(F)(F)F)s3)c2=O)n1 [Compound 14, (E)-6-((6-chloro-2-methyl-2H-indazol-5-yl)imino)-1-(5-chloro-4-fluoro-2-((5-(trifluoromethyl)thiazol-2-yl)oxy)benzyl)-3-((1-methyl-1H-1,2,4-triazol-3-yl)methyl)-1,3,5-triazinane-2,4-dione]
M^pro of four alpha-CoVs
  IC50: < 0.3 µM

## Cc1cncc(-n2c(=O)[nH]/c(=N\c3cc4cn(C)nc4cc3Cl)n(Cc3cc(C#N)ccc3Sc3ccc(Cl)s3)c2=O)c1 [Compound 24, (E)-3-((6-((6-Chloro-2-methyl-2H-indazol-5-yl)imino)-3-(5-methylpyridin-3-yl)-2,4-dioxo-1,3,5-triazinan-1-yl)methyl)-4-((5-chlorothiophen-2-yl)thio)benzonitrile]
M^pro of four alpha-CoVs
  IC50: < 0.3 µM

## Cn1cc2cc(/N=c3\[nH]c(=O)n(Cc4ccc[nH]c4=O)c(=O)n3Cc3cc(Cl)c(F)cc3Oc3ccc(C#N)s3)c(Cl)cc2n1 [Compound 25, (E)-5-(4-chloro-2-((6-((6-chloro-2-methyl-2H-indazol-5-yl)imino)-2,4-dioxo-3-((2-oxo-1,2-dihydropyridin-3-yl)methyl)-1,3,5-triazinan-1-yl)methyl)-5-fluoro-phenoxy)thiophene-2-carbonitrile]
M^pro of four alpha-CoVs
  IC50: < 0.6 µM
[1]; read-out: IC50 against ten high-risk CoVs
  IC50: < 0.6 µM
[1]; read-out: IC50 values for six of the ten CoVs
  IC50: < 0.1 µM

## Cn1cnc(Cn2c(=O)[nH]/c(=N\c3cc4cn(C)nc4cc3Cl)n(Cc3cc(F)c(F)cc3F)c2=O)n1 [S-217622 (1)]
HCoV-OC43 M^pro; reported compound
  IC50: […]
HCoV-HKU1 M^pro
  IC50: […]
HCoV-NL63 M^pro; reported compound
  IC50: […]
